In experiment [1] the test system is Normal human fibroblasts. Kind of experiment: Test of collagen synthesis promoting function of fibroblasts (type I collagen ELISA, BCA protein). Format: cell-based. To be noted: positive control, concentration not given, 48 hours. Here is the method:
The collagen synthesis of fibroblasts was evaluated by quantifying the amount of secreted type I collagen in culture supernatant by ELISA.
Normal human fibroblasts were seeded onto a 96-well microplate at a cell density of 3.0×10^4 cells/well. After culturing for 24 hours in DMEM containing 0.5 percent FBS, the medium was replaced with DMEM containing 0.5 percent FBS containing a freeze-dried product of grape sap in the concentration shown in Table 2. A PC in the form of magnesium ascorbyl phosphate (VCPMg) was employed. After 48 hours, the culture supernatant was collected and the amount of type I collagen was quantified by ELISA.
Culture supernatant and calibration curve-use type I collagen were placed in a 96-well plate and coated overnight at 4° C. […] Twenty minutes later, a microplate reader was employed to measure the absorbance at 405 nm. The quantity of collagen in the culture supernatant was calculated from a calibration curve measured with the same plate.
At the same time, the quantity of cell protein was quantified using BCA protein assay reagent (PIERCE). The quantity of collagen in the culture supernatant was divided by the quantity of protein to calculate the quantity of collagen per unit of protein, which was adopted as the quantity of collagen synthesized by the cells. […] The p value was determined to be significant when p<0.05. […]
(ELISA stands for enzyme-linked immunosorbent assay.)

In experiment [2] the test system is Normal human fibroblasts. Nature of the experiment: Test of fibroblast activation function (MTT formazan). To be noted: positive control, DMEM containing 5 percent FBS, 48 hours, control = 100, n = 5. The experiment is classed as cell-based. How it is done: 3-(4,5-Dimethyl-2-thiazolyl)-2,5-diphenyl-2H-tetrazolium […] (MTT) cleaves NADPH or NADH produced in energy metabolic processes in mitochondria within cells to produce formazan. Thus, the quantity of formazan produced was adopted as an indicator of cell activation function.
Normal human fibroblasts were seeded onto a 96-well microplate at a cell density of 3.0×10^4 cells/well. After culturing for 24 hours in Dulbecco's modified eagle medium (DMEM) containing 1 percent fetal bovine serum (FBS), the medium was replaced with DMEM containing 1 percent FBS containing a freeze-dried product of grape sap in the concentration shown in Table 1. A positive control (PC) in the form of DMEM containing 5 percent FBS was employed. […]
The cells were washed, the formazan produced in the cells was dissolved in 2-propanol, and a microplate reader was employed to measure the absorbance at 550 nm and 650 nm. The difference between the two was calculated to evaluate the quantity of formazan generated within the cells. Cell activation function was denoted by an activation index (%) with the absorbance (ABS.) of cultivated cells to which no sample was added (control) being denoted as 100. […] The p value was determined to be significant when p<0.05.

SMILES strings stand for the structures.

On to `O=C1O[C@H]([C@@H](O)CO)C([O-])=C1OP(=O)([O-])[O-].O=C1O[C@H]([C@@H](O)CO)C([O-])=C1OP(=O)([O-])[O-].[Mg+2].[Mg+2].[Mg+2]` [PC, magnesium ascorbyl phosphate], for which, in the experiment with Normal human fibroblasts [1], the “Collagen amount (ng/μg protein) Mean ± SD” value is 32.9 ± 4.8 ng/μg protein and the “Protein amount (μg) Mean ± SD” value was found to be 11.2 ± 0.2 µg. In addition, the “Activation index (%) Mean ± SD” value in the experiment on Normal human fibroblasts [2] stood at 116.0 ± 2.9%.

These data come from US20090297645A1, “Fibroblast Activator and Method of Activating Fibroblast, Collagen Synthesis Promoter and Method of Promoting Collagen Synthesis, and Skin Antiaging Agent and Method of Preventing Aging of Skin” (priority 2005, published 2009).
